Test results as given in PubChem BioAssay AID328 (DTP/NCI, 2004).
Several values for one entry are separate records, joined by “and”; a condition that tells them apart may be missing. Identical values can stand only once. Toxic doses and inconclusive results are not listed.

System: BDF1 mice, P388 leukemia ip, median survival T/C
Assay: NCI In Vivo Anticancer Drug Screen. Data for tumor model P388 Leukemia (intraperitoneal) in B6D2F1 (BDF1) mice
Settings: endpoint: median survival time, higher = longer survival
In short: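 Survival ratio, drug arm over vehicle arm, in mice with a transplanted tumour.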

[1] = dose: 100.0 mg/kg/injection, schedule: Q01DX009 (ip), vehicle: Klucel (hydroxypropylcellulose) (HPC)
[2] = dose: 50.0 mg/kg/injection, schedule: Q04DX003 (ip), vehicle: saline with Tween-80
[3] = dose: 100.0 mg/kg/injection, schedule: Q04DX003 (ip), vehicle: saline with Tween-80
[4] = dose: 200.0 mg/kg/injection, schedule: Q04DX003 (ip), vehicle: saline with Tween-80
[5] = dose: 50.0 mg/kg/injection, schedule: Q01DX009 (ip), vehicle: saline
[6] = dose: 100.0 mg/kg/injection, schedule: Q04DX003 (ip), vehicle: Klucel (hydroxypropylcellulose) (HPC)
[7] = dose: 200.0 mg/kg/injection, schedule: Q04DX003 (ip), vehicle: Klucel (hydroxypropylcellulose) (HPC)
[8] = dose: 400.0 mg/kg/injection, schedule: Q04DX003 (ip), vehicle: Klucel (hydroxypropylcellulose) (HPC)
[9] = dose: 100.0 mg/kg/injection, schedule: Q01DX009 (ip), vehicle: saline
[10] = dose: 400.0 mg/kg/injection, schedule: Q04DX003 (ip), vehicle: saline with Tween-80

S=C(NNc1ccccc1)Nc1ccccc1
T/C (dose: 25.0 mg/kg/injection, schedule: Q01DX009 (ip), vehicle: Klucel (hydroxypropylcellulose) (HPC)): 106 % of control | T/C (dose: 50.0 mg/kg/injection, schedule: Q01DX009 (ip), vehicle: Klucel (hydroxypropylcellulose) (HPC)): 101 % of control | T/C [1]: 96 % of control

COc1ccccc1OC(=O)Nc1ccc(C)c([N+](=O)[O-])c1
T/C (dose: 25.0 mg/kg/injection, schedule: Q04DX003 (ip), vehicle: saline with Tween-80): 100 % of control | T/C [2]: 104 % of control | T/C [3]: 100 % of control

CCC1=C(c2ccc(OC)cc2)CCC(C(=O)O)C1C (stereo unspecified)
T/C (dose: 3.0 mg/kg/injection, schedule: Q01DX010 (sc), vehicle: steriod suspending solution): 90 % of control | T/C (dose: 6.0 mg/kg/injection, schedule: Q01DX010 (sc), vehicle: steriod suspending solution): 105 % of control | T/C (dose: 12.0 mg/kg/injection, schedule: Q01DX010 (sc), vehicle: steriod suspending solution): 100 % of control | T/C (dose: 24.0 mg/kg/injection, schedule: Q01DX010 (sc), vehicle: steriod suspending solution): 95 % of control | T/C (dose: 48.0 mg/kg/injection, schedule: Q01DX010 (sc), vehicle: steriod suspending solution): 100 % of control | T/C (dose: 96.0 mg/kg/injection, schedule: Q01DX010 (sc), vehicle: steriod suspending solution): 110 % of control | T/C (dose: 192.0 mg/kg/injection, schedule: Q01DX010 (sc), vehicle: steriod suspending solution): 105 % of control

CC(=O)[C@H]1CC[C@H]2[C@@H]3C[C@H](C)C4=CC(=O)CC[C@]4(C)[C@H]3[C@@H](O)C[C@]12C
T/C [3]: 107 % of control | T/C [4]: 100 % of control

NNC(=O)C1CC1
T/C (dose: 6.25 mg/kg/injection, schedule: Q01DX009 (ip), vehicle: saline): 96 % of control | T/C (dose: 12.5 mg/kg/injection, schedule: Q01DX009 (ip), vehicle: saline): 107 % of control | T/C (dose: 25.0 mg/kg/injection, schedule: Q01DX009 (ip), vehicle: saline): 100 % of control | T/C (dose: 25.0 mg/kg/injection, schedule: Q04DX003 (ip), vehicle: saline): 100 % of control | T/C [5]: 100 % of control | T/C (dose: 50.0 mg/kg/injection, schedule: Q04DX003 (ip), vehicle: saline): 100 % of control | T/C (dose: 100.0 mg/kg/injection, schedule: Q04DX003 (ip), vehicle: saline): 104 % of control

COc1ccc(CCC(C)=O)cc1
T/C [1]: 100 % of control | T/C [6]: 95 % of control | T/C [7]: 110 % of control | T/C (dose: 400.0 mg/kg/injection, schedule: Q01DX009 (ip), vehicle: Klucel (hydroxypropylcellulose) (HPC)): 109 % of control | T/C [8]: 105 % of control

O=c1[nH]ccn2cnnc12
T/C (dose: 100.0 mg/kg/injection, schedule: Q01DX001 (ip), vehicle: saline with Tween-80): 95 % of control | T/C (dose: 200.0 mg/kg/injection, schedule: Q01DX001 (ip), vehicle: saline with Tween-80): 95 % of control | T/C (dose: 400.0 mg/kg/injection, schedule: Q01DX001 (ip), vehicle: saline with Tween-80): 104 % of control

[N-]=[N+]=C1C=C(c2ccccc2)N=C1c1ccccc1
T/C [5]: 109 % of control | T/C [9]: 88 % of control

CS(=O)(=O)OCCN(CCOS(C)(=O)=O)c1ccc(C=Nc2ccc3oc(=O)ccc3c2)cc1
T/C [3]: 212 % of control | T/C (dose: 132.0 mg/kg/injection, schedule: Q04DX003 (ip), vehicle: saline with Tween-80): 165 % of control | T/C [4]: 243 % of control

Oc1c(Cl)c(Cl)c(Cl)c2cccnc12
T/C (dose: 3.13 mg/kg/injection, schedule: Q01DX009 (ip), vehicle: saline with Tween-80): 103 % of control | T/C (dose: 6.25 mg/kg/injection, schedule: Q01DX009 (ip), vehicle: saline with Tween-80): 106 % of control | T/C (dose: 12.5 mg/kg/injection, schedule: Q01DX009 (ip), vehicle: saline with Tween-80): 104 % of control

Cc1cc2c(cc1C)NC(=O)CC(=O)N2
T/C [6]: 100 % of control | T/C [7]: 86 % of control | T/C [8]: 86 % of control

CCc1ccccc1NC(=O)c1cccc(Cl)c1
T/C [3]: 95 % of control | T/C [4]: 100 % of control | T/C [10]: 104 % of control

COC(=O)C(Cc1ccccc1)NS(=O)(=O)c1ccc(C)cc1 (stereo unspecified)
T/C (dose: 12.5 mg/kg/injection, schedule: Q01DX005 (ip), vehicle: saline with Tween-80): 92 % of control | T/C (dose: 25.0 mg/kg/injection, schedule: Q01DX005 (ip), vehicle: saline with Tween-80): 90 % of control | T/C (dose: 50.0 mg/kg/injection, schedule: Q01DX005 (ip), vehicle: saline with Tween-80): 87 % of control and 92 % of control | T/C (dose: 200.0 mg/kg/injection, schedule: Q01DX005 (ip), vehicle: saline with Tween-80): 111 % of control

O=C(O)CNC(=O)C(Br)Cc1ccccc1 (stereo unspecified)
T/C [3]: 90 % of control | T/C [4]: 100 % of control | T/C [10]: 100 % of control

c1ccc(CCN2CCC3(CC2)COCc2ccccc23)cc1
T/C (dose: 25.0 mg/kg/injection, schedule: Q01DX001 (ip), vehicle: saline with Tween-80): 104 % of control | T/C (dose: 50.0 mg/kg/injection, schedule: Q01DX001 (ip), vehicle: saline with Tween-80): 90 % of control

O=C(Nc1ccccc1Cl)OCC#CCOC(=O)Nc1ccccc1Cl
T/C (dose: 100.0 mg/kg/injection, schedule: Q04DX003 (ip), vehicle: saline sonified): 90 % of control | T/C (dose: 200.0 mg/kg/injection, schedule: Q04DX003 (ip), vehicle: saline sonified): 95 % of control | T/C (dose: 400.0 mg/kg/injection, schedule: Q04DX003 (ip), vehicle: saline sonified): 86 % of control

CC(=O)n1ccc(=O)[nH]c1=O
T/C (dose: 50.0 mg/kg/injection, schedule: Q01DX009 (ip), vehicle: saline with Tween-80): 102 % of control | T/C (dose: 100.0 mg/kg/injection, schedule: Q01DX009 (ip), vehicle: saline with Tween-80): 110 % of control | T/C (dose: 200.0 mg/kg/injection, schedule: Q01DX009 (ip), vehicle: saline with Tween-80): 99 % of control

NC(=O)c1ncc[nH]c1=O
T/C [2]: 100 % of control | T/C [3]: 100 % of control | T/C [4]: 105 % of control

CC(C)COC(=O)C1(N)CCCC1
T/C [5]: 100 % of control | T/C (dose: 66.0 mg/kg/injection, schedule: Q01DX009 (ip), vehicle: saline with Tween-80): 95 % of control and 108 % of control | T/C [9]: 177 % of control | T/C (dose: 150.0 mg/kg/injection, schedule: Q01DX009 (ip), vehicle: saline with Tween-80): 108 % of control and 116 % of control | T/C (dose: 200.0 mg/kg/injection, schedule: Q01DX009 (ip), vehicle: saline): 95 % of control

COc1cc([N+](=O)[O-])ccc1N
T/C [3]: 100 % of control

CC(=O)NC(Cc1ccc(N(CCCl)CCCl)cc1)C(=O)NC(CC(C)C)C(=O)O (stereo unspecified)
T/C (dose: 20.0 mg/kg/injection, schedule: Q04DX003 (ip), vehicle: other): 152 % of control | T/C (dose: 40.0 mg/kg/injection, schedule: Q04DX003 (ip), vehicle: other): 203 % of control | T/C (dose: 80.0 mg/kg/injection, schedule: Q04DX003 (ip), vehicle: other): 239 % of control | T/C (dose: 160.0 mg/kg/injection, schedule: Q04DX003 (ip), vehicle: other): 104 % of control

c1ccc([As+](c2ccccc2)(c2ccccc2)c2ccccc2)cc1
T/C (dose: 0.1 mg/kg/injection, schedule: Q04DX003 (ip), vehicle: saline): 110 % of control | T/C (dose: 0.15 mg/kg/injection, schedule: Q01DX009 (ip), vehicle: saline): 105 % of control | T/C (dose: 0.15 mg/kg/injection, schedule: Q04DX003 (ip), vehicle: saline): 105 % of control | T/C (dose: 0.23 mg/kg/injection, schedule: Q01DX009 (ip), vehicle: saline): 116 % of control | T/C (dose: 0.36 mg/kg/injection, schedule: Q04DX003 (ip), vehicle: saline): 110 % of control | T/C (dose: 0.54 mg/kg/injection, schedule: Q01DX009 (ip), vehicle: saline): 122 % of control | T/C (dose: 0.55 mg/kg/injection, schedule: Q04DX003 (ip), vehicle: saline): 165 % of control | T/C (dose: 2.4 mg/kg/injection, schedule: Q01DX009 (ip), vehicle: saline): 184 % of control | T/C (dose: 2.5 mg/kg/injection, schedule: Q01DX009 (ip), vehicle: saline): 155 % of control | T/C (dose: 3.75 mg/kg/injection, schedule: Q01DX009 (ip), vehicle: saline): 160 % of control and 161 % of control and 184 % of control | T/C (dose: 5.0 mg/kg/injection, schedule: Q04DX003 (ip), vehicle: saline): 150 % of control and 160 % of control | T/C (dose: 5.6 mg/kg/injection, schedule: Q01DX009 (ip), vehicle: saline): 121 % of control | T/C (dose: 5.63 mg/kg/injection, schedule: Q01DX009 (ip), vehicle: saline): 165 % of control | T/C (dose: 7.5 mg/kg/injection, schedule: Q04DX003 (ip), vehicle: saline): 150 % of control

OCCN=Cc1ccccc1
T/C [3]: 100 % of control | T/C [4]: 100 % of control

O=c1[nH]c(C(F)(F)F)nc2c1nc1n2CCC1
T/C [3]: 104 % of control | T/C [4]: 100 % of control | T/C [10]: 100 % of control
